Measurements published in publication PMC6150310, “Synthesis and Structure–Activity Relationships of 4-Morpholino-7,8-Dihydro-5H-Thiopyrano[4,3-d]pyrimidine Derivatives Bearing Pyrazoline Scaffold” (Molecules : A Journal of Synthetic Chemistry and Natural …, 2017).

How the values were obtained:
MCF-7 cell line = assay: MTT cytotoxicity assay, MCF-7; type: cell-based; conditions: Homo sapiens, MCF7, 72 h, average of two determinations, NA = No Activity
Procedure: (§1) Taking GDC-0941 as the reference compound, the target compounds (7a–l and 8a–l) were evaluated for the cytotoxicity against four cancer cell lines A549, PC-3, MCF-7, and HepG2 by 3-(4,5-dimethylthiazolyl-2)-2,5-diphenyltetrazolium bromide (MTT) cell proliferation assay. In order to confirm the types of target compound, selective or mixed-type inhibitors, the selected compound, 8d, was measured for its PI3Kα kinase inhibitory activity together with reference compounds GDC-0941 and PI103 via the Kinase-Glo® Luminescent […] assay. The results expressed as inhibition rates or IC50 values are summarized in Table 1 and Table 2, where the values are the average of at least two independent experiments.
(§2) The in vitro cytotoxic activities of Compounds 7a–l and 8a–l were evaluated with A549, PC-3, HepG2, and MCF-7 cell lines by the standard MTT assay, with GDC-0941 as a positive control. The cancer cell lines were cultured in minimum essential medium (MEM) supplement with 10% fetal bovine serum (FBS). Approximately, 4 × 10^3 cells, suspended in MEM medium, were plated onto each well of a 96-well plate and incubated in 5% CO2 at 37 °C for 24 h. The test compounds at the indicated final concentrations were added to the culture medium, and cell cultures continued for 72 h. Fresh MTT was added to each well at a terminal concentration of […] and incubated with cells at 37 °C for 4 h. The formazan crystals were dissolved in 100 µL of DMSO in each well, and the absorbency at 492 nm (for absorbance of MTT formazan) and 630 nm (for the reference wavelength) was measured with an enzyme linked immunosorbent assay (ELISA) reader (MR-96A Mindray Elisa Microplate Reader, Guangzhou, China). All compounds were tested three times in each of the cell lines. The results expressed as inhibition rates or IC50 were the averages of two determinations and calculated using the Bacus Laboratories Inc. Slide Scanner (Bliss) software (the Bacus Laboratories Inc. Slide Scanner (BLISS) system, Lombard, IL, USA).

[1] = system: four cancer cell lines (A549, PC-3, MCF-7, HepG2); assay: MTT cytotoxicity assay, four cancer cell lines together; type: cell-based; conditions: Homo sapiens, range over A549, PC-3, MCF-7, HepG2, read-out: IC50 values against four cancer cell lines
Procedure: as §1
The in vitro cytotoxic activities of Compounds 7a–l and 8a–l were evaluated with A549, PC-3, HepG2, and MCF-7 cell lines by the standard MTT assay, with GDC-0941 as a positive control. The cancer cell lines were cultured in minimum essential medium (MEM) supplement with 10% fetal bovine serum (FBS). […] The formazan crystals were dissolved in 100 µL of DMSO in each well, and the absorbency at 492 nm (for absorbance of MTT formazan) and 630 nm (for the reference wavelength) was measured with an enzyme linked immunosorbent assay (ELISA) reader (MR-96A Mindray Elisa Microplate Reader, Guangzhou, China). […]

PI3Kα = PI3Kα (Homo sapiens, UniProt P42336); assay: PI3Kα Kinase-Glo Luminescent Kinase Assay; type: biochemical; conditions: 1 µM ATP, 60 min, average of two determinations
HepG2 cell line = assay: MTT cytotoxicity assay, HepG2; type: cell-based; conditions: Homo sapiens, HepG2, 72 h, average of two determinations, NA = No Activity
Procedure: as §1, §2

A549 cell line = assay: MTT cytotoxicity assay, A549; type: cell-based; conditions: Homo sapiens, A549, 72 h, average of two determinations, NA = No Activity
Procedure: as §1, §2

PC-3 cell line = assay: MTT cytotoxicity assay, PC-3; type: cell-based; conditions: Homo sapiens, PC-3, 72 h, average of two determinations, NA = No Activity
Procedure: as §1, §2

PI3Kα, sequence (P42336 whole entry): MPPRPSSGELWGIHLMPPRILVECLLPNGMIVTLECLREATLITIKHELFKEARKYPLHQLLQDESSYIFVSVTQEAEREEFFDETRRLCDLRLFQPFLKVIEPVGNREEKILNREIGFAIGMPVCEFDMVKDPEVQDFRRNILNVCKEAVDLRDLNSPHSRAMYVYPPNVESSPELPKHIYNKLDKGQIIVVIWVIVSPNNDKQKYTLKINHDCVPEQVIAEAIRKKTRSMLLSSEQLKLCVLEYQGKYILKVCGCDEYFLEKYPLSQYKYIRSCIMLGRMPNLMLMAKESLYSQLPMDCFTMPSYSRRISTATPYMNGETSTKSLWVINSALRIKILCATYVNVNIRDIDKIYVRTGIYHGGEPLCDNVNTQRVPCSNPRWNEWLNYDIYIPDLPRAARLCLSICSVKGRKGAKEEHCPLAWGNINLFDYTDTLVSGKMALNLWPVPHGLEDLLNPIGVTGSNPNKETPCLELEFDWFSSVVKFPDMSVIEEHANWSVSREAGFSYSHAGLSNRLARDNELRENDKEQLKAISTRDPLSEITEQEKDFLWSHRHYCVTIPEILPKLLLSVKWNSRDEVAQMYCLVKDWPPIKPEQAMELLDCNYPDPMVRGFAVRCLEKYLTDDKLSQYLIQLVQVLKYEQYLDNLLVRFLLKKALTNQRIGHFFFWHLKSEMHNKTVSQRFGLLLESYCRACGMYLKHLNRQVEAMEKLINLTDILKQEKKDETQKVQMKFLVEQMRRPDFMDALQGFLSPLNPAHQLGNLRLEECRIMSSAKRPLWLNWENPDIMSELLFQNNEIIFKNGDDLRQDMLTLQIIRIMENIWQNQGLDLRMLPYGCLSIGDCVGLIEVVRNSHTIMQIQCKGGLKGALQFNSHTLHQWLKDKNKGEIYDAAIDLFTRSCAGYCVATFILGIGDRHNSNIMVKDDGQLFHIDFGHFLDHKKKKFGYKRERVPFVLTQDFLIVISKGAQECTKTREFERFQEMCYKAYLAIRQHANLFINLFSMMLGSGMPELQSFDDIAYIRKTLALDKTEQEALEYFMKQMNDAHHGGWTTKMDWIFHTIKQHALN
PI3Kα, sequence (P27986 whole entry partner): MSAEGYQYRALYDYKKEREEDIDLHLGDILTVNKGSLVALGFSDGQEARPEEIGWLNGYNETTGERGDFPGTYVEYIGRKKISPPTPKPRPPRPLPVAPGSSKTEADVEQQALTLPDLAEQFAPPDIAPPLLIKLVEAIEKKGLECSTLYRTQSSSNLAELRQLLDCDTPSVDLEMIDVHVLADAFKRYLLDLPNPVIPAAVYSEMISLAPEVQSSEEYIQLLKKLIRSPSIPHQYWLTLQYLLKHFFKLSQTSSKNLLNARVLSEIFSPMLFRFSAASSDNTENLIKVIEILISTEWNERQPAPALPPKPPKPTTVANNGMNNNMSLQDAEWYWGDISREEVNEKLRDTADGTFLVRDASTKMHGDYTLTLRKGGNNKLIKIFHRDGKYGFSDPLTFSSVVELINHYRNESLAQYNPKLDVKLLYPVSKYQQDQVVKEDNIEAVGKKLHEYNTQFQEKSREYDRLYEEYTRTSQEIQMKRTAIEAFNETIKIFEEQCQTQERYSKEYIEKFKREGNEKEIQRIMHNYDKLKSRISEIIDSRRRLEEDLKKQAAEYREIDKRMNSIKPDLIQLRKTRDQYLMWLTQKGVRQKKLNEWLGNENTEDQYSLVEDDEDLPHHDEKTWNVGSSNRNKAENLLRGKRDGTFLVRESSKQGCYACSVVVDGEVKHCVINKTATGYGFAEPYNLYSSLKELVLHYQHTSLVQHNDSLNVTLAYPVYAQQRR

IC50 (PI3Kα)	melting point	SMILES	IC50 (MCF-7 cell line)	IC50 [1]	IC50 (HepG2 cell line)	IC50 (A549 cell line)	IC50 (PC-3 cell line)
8.38 ± 0.21 µM	–	O=S1(=O)CCc2nc(N3N=C(c4ccc(F)cc4)C[C@@H]3c3ccc(Cl)c(Cl)c3)nc(N3CCOCC3)c2C1 (racemic) [Compound 8d, (R)-2-(5-(3,4-Dichlorophenyl)-3-(4-fluorophenyl)-4,5-dihydro-1H-pyrazol-1-yl)-4-morpholino-7,8-dihydro-5H-thiopyrano[4,3-d]pyrimidine 6,6-dioxide]	10.3 ± 0.94 µM	6.02 to 10.3 µM	–	–	–
–	162 to 163 °C	O=S1(=O)CCc2nc(N3N=C(c4ccc(Br)cc4)C[C@@H]3c3ccc(Cl)c(Cl)c3)nc(N3CCOCC3)c2C1 [Compound 8c, (R)-2-(3-(4-Bromophenyl)-5-(3,4-dichlorophenyl)-4,5-dihydro-1H-pyrazol-1-yl)-4-morpholino-7,8-dihydro-5H-thiopyrano[4,3-d]pyrimidine 6,6-dioxide]	43.86 ± 0.15 µM	–	0.06 ± 0.01 µM	27.8 ± 1.18 µM	37.58 ± 0.22 µM
–	167 to 168 °C	Brc1ccc([C@H]2CC(c3ccccc3)=NN2c2nc3c(c(N4CCOCC4)n2)CSCC3)cc1 [Compound 7k, (R)-4-(2-(5-(4-Bromophenyl)-3-phenyl-4,5-dihydro-1H-pyrazol-1-yl)-7,8-dihydro-5H-thiopyrano[4,3-d]pyrimidin-4-yl)morpholine]	35.7 ± 0.74 µM	–	32.7 ± 0.36 µM	31.2 ± 0.59 µM	17.8 ± 0.55 µM
–	185 to 186 °C	Clc1ccc([C@H]2CC(c3ccc(Br)cc3)=NN2c2nc3c(c(N4CCOCC4)n2)CSCC3)cc1Cl [Compound 7c, (R)-4-(2-(3-(4-Bromophenyl)-5-(3,4-dichlorophenyl)-4,5-dihydro-1H-pyrazol-1-yl)-7,8-dihydro-5H-thiopyrano[4,3-d]pyrimidin-4-yl)morpholine]	22.98 ± 0.19 µM	–	15.36 ± 0.03 µM	13 ± 0.42 µM	12.9 ± 1.56 µM
